The source of these data is patent US10138207B2, “Benzomorphan analogs and the use thereof” (priority 2012, dated 2018).

For experiment [1], the target named is T1, κ opioid receptor (Homo sapiens, UniProt P41145). Nature of the experiment: κ-opioid receptor [35S]GTPγS functional assay, HEK-293 or CHO cells. In kind it is biochemical. More on the design: expressed in transfected cells; host or cells: U-2 OS (in-house membranes). Particulars: for Emax: relative to U69,593. As for the experimental part: Membranes from recombinant HEK-293 cells, CHO or U-2 OS cells expressing the recombinant human κ opioid receptor (κ) were prepared by lysing cells in ice cold hypotonic buffer (2.5 mM MgCl2, 50 mM HEPES, pH 7.4) (10 mL/10 cm dish) followed by homogenization with a tissue grinder/Teflon pestle. Membranes from a cell line naturally expressing kappa opioid receptors can also be used. Membranes were collected by centrifugation at 30,000×g for 15 min at 4° C. and pellets were resuspended in hypotonic buffer to a final concentration of 1-3 mg/mL. Protein concentrations were determined using the BioRad protein assay reagent with bovine serum albumen as standard. Aliquots of κ receptor membranes were stored at −80° C.
T1 sequence (P41145 whole entry): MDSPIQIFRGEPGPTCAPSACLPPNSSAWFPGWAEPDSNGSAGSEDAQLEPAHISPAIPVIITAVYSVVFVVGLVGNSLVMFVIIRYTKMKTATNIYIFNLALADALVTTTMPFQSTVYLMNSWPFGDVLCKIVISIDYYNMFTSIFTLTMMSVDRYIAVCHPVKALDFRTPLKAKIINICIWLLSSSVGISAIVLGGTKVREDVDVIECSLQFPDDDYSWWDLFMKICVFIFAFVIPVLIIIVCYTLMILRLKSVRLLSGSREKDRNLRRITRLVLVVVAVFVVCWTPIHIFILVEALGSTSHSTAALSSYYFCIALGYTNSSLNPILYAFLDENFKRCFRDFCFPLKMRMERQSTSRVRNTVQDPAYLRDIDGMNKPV
Plates were incubated for 30 min at a temperature of about 25° C. with shaking.
(GTPγS resists hydrolysis and so accumulates on activated G proteins.)

The target in experiment [2] is T1, κ opioid receptor. The experiment in a line: biochemical. In kind it is binding. More on the design: expressed in transfected cells; host or cells: HEK 293 (in-house membrane prep). Particulars: HEK-293 or CHO cells.
For experiment [3], the target named is T2, μ-opioid receptor (Homo sapiens, UniProt P35372). Nature of the experiment: μ-opioid receptor [35S]GTPγS functional assay, HEK-293 or CHO cells. The following applies: for Emax: read-out: GTPγS μ Emax.
T2 sequence (P35372 whole entry, species assumed): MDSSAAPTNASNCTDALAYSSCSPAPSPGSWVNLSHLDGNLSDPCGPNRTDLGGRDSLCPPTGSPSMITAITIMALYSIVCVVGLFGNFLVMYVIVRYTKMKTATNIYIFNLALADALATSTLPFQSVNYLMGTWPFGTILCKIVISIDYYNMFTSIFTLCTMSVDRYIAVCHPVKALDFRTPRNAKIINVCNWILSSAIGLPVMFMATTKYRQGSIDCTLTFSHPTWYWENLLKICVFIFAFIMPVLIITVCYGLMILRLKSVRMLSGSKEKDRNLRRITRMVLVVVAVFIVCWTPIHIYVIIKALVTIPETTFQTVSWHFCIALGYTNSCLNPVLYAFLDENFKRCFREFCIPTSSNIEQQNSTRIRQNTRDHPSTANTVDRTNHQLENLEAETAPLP
The target in experiment [4] is T2, μ-opioid receptor. Nature of the experiment: μ-opioid receptor radioligand dose-displacement binding assay ([3H]-diprenorphine). Also on record: expressed in transfected cells; host or cells: HEK-293 or CHO. As for the experimental part:
Radioligand dose-displacement binding assays for μ-opioid receptors used 0.3 nM [^3H]-diprenorphine (Perkin Elmer, Shelton, Conn.), with […] membrane protein/well in a final volume of 500 μl binding buffer (10 mM MgCl2, 1 mM EDTA, 5% DMSO, 50 mM HEPES, pH 7.4). Reactions were carried out in the absence or presence of increasing concentrations of unlabeled naloxone. All reactions were conducted in 96-deep well polypropylene plates for 2 hr at room temperature. […] The data were analyzed using the one-site competition curve fitting functions in GraphPad PRISM™ v. 3.0 or higher (San Diego, Calif.), or an in-house function for one-site competition curve-fitting.

Experiment [5] concerns the target T3, human opioid receptor-like receptor (ORL-1) (Homo sapiens, UniProt P41146).
T3 construct: host or cells: HEK-293
Nature of the experiment: ORL-1 receptor radioligand binding assay ([3H]-nociceptin). Particulars: HEK-293 or CHO cells; bound in μM. The protocol:
Membranes from recombinant HEK-293 cells expressing the human opioid receptor-like receptor (ORL-1) (Perkin Elmer, Shelton, Conn.) are prepared by lysing cells in ice-cold hypotonic buffer (2.5 mM MgCl2, 50 mM HEPES, pH 7.4) (10 ml/10 cm dish) followed by homogenization with a tissue grinder/Teflon pestle. Membranes are collected by centrifugation at 30,000×g for 15 min at 4° C. and pellets resuspended in hypotonic buffer to a final concentration of 1-3 mg/ml. Protein concentrations are determined using the BioRad protein assay reagent with bovine serum albumen as standard. Aliquots of the ORL-1 receptor membranes are stored at −80° C.
Radioligand binding assays (screening and dose-displacement) use 0.1 nM [^3H]-nociceptin (Perkin Elmer, Shelton, Conn.; 87.7 Ci/mmole) with 12 μg membrane protein in a final volume of 500 μl binding buffer (10 mM MgCl2, 1 mM EDTA, 5% DMSO, 50 mM HEPES, pH 7.4). Non-specific binding is determined in the presence of […] unlabeled nociceptin (American Peptide Company). All reactions are performed in 96-deep well polypropylene plates for 1 h at room temperature. […] The data from screening and dose-displacement experiments are analyzed using Microsoft Excel and the curve fitting functions in GraphPad PRISM™, v. 3.0 or higher, respectively, or an in-house function for one-site competition curve-fitting.

Experiment [6] deals with T2, μ-opioid receptor. Nature of the experiment: μ-opioid receptor [35S]GTPγS functional assay, U-2 OS cells. Particulars: U-2 OS cells; for EC50: read-out: GTPγS μ EC50; for Emax: relative to DAMGO, read-out: GTPγS μ Emax. More on the design: expressed in transfected cells; host or cells: U-2 OS. In kind it is biochemical.
For experiment [7], the target named is T1, κ opioid receptor. The experiment in a line: κ-opioid receptor [35S]GTPγS functional assay, U-2 OS cells. In kind it is biochemical. Also on record: expressed in transfected cells; host or cells: U-2 OS (in-house membranes). Particulars: U-2 OS cells; for EC50: bound in μM, read-out: GTPγS κ EC50; for Emax: relative to U69,593, read-out: GTPγS κ Emax.
[8] abbreviates: HEK-293 or CHO cells, read-out: GTPγS κ EC50.
Setting [9] is: HEK-293 or CHO cells, read-out: Ki Opioid Receptor μ.
Where [10] appears, read: HEK-293 or CHO cells, bound in μM, read-out: GTPγS κ EC50.

Like-named read-outs stand apart in the source and are kept apart here.

T3 sequence (P41146 whole entry): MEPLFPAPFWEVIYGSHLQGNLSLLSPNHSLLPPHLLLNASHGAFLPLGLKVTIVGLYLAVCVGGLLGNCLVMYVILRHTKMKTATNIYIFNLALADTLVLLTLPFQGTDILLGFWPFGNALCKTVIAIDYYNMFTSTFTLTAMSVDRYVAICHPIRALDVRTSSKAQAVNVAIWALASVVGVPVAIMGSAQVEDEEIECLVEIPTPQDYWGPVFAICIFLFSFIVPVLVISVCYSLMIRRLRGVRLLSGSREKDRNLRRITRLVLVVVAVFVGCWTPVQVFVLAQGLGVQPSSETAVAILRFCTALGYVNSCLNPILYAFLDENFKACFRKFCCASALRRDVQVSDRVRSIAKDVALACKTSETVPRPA

The term EC50 denotes the concentration at which the effect is half-maximal. The Emax is the greatest response seen or fitted, relative to the assay's reference. The term Ki denotes a measure of affinity in units of concentration, obtained from inhibition or displacement. With `CN(C(=O)/C=C/c1ccoc1)[C@H]1C2Cc3ccc(O)cc3[C@@]1(C)CCN2CC1CC1` [Compound 83, (E)-N-((6R,11R)-3-(cyclopropylmethyl)-8-hydroxy-6-methyl-1,2,3,4,5,6-hexahydro-2,6-methanobenzo[d]azocin-11-yl)-3-(furan-3-yl)-N-methylacrylamide], the EC50 on κ opioid receptor [1] (setting [8]) is 0.00267 ± 0.00084 µM; at μ-opioid receptor [3], 10.6 ± 1.18 nM. For the same molecule, the Emax on κ opioid receptor [1] (HEK-293 or CHO cells) was found to be 77.7 ± 1.76%; at μ-opioid receptor [3], 92.7 ± 5.21%. Moreover, the Ki on κ opioid receptor [2] was 0.00015 ± 2e-05 µM; at μ-opioid receptor [4] (setting [9]), 1.78 ± 0.38 nM.

With `CN1CC[C@@]2(C)c3cc(O)ccc3C[C@@H]1[C@H]2NCCc1ccc(S(N)(=O)=O)cc1` [Compound 94, 4-(2-(((2R,6S,11S)-8-hydroxy-3,6-dimethyl-1,2,3,4,5,6-hexahydro-2,6-methanobenzo[d]azocin-11-yl)amino)ethyl)benzenesulfonamide], the EC50 at κ opioid receptor [1] (setting [10]) is over 20 µM; at μ-opioid receptor [6], 27.4 ± 4.2 nM; on κ opioid receptor [7] it was over 20 µM; on μ-opioid receptor [3] it was 40.8 ± 2.76 nM. The Emax on κ opioid receptor [1] (HEK-293 or CHO cells) worked out at 4.6 ± 0.4%; on μ-opioid receptor [6] it was 85.3 ± 5.93%; on κ opioid receptor [7], 0%; at μ-opioid receptor [3], 85.3 ± 4.98%. Further, the Ki in experiment [5] is over 20 µM; at κ opioid receptor [2], 0.0168 ± 0.00251 µM; at μ-opioid receptor [4] (setting [9]), 36.8 ± 12.1 nM.

Take `COc1ccc2c(c1)[C@@]1(C)CCN(C)C(C2)[C@H]1OCC(N)=O` [Compound 4, 2-(((6R,11S)-8-methoxy-3,6-dimethyl-1,2,3,4,5,6-hexahydro-2,6-methanobenzo[d]azocin-11-yl)oxy)acetamide]: the results for the Ki on κ opioid receptor [2] (bound in μM) and on μ-opioid receptor [4] were over 20 µM and over 20000 nM, respectively.

For `CN1CC[C@]2(C)c3cc(O)ccc3C[C@H]1[C@@H]2NCCc1ccc(S(N)(=O)=O)cc1` [Compound 95, 4-(2-(((2S,6R,11R)-8-hydroxy-3,6-dimethyl-1,2,3,4,5,6-hexahydro-2,6-methanobenzo[d]azocin-11-yl)amino)ethyl)benzenesulfonamide], the values for the Ki (in experiment [5]; at κ opioid receptor [2]; at μ-opioid receptor [4] (setting [9])) were over 20 µM, 4.6 ± 0.764 µM and 1760 ± 324 nM, respectively. Also, the results for the EC50 at μ-opioid receptor [6], at κ opioid receptor [7] and at μ-opioid receptor [3] were 1440 ± 44.7 nM, over 20 µM and 2120 ± 204 nM, respectively. Moreover, the figures for the Emax on μ-opioid receptor [6], at κ opioid receptor [7] and on μ-opioid receptor [3] were 79.7 ± 8.41%, -1% and 78 ± 3.06%, respectively.

With `CCC=C1C2Cc3ccc(OC)cc3C1(C)CCN2C` (stereo not shown) [Compound 6, 8-methoxy-3,6-dimethyl-11-propylidene-1,2,3,4,5,6-hexahydro-2,6-methanobenzo[d]azocine], the Ki on κ opioid receptor [2] was 3.16 ± 1.24 µM; at μ-opioid receptor [4], over 20000 nM.

For the molecule `CCN(CC)CCON=C1C2Cc3ccc(OC)cc3C1(C)CCN2C` (stereo not shown) [Compound 5, 8-methoxy-3,6-dimethyl-1,2,3,4,5,6-hexahydro-2,6-methanobenzo[d]azocin-11-one O-(2-(diethylamino)ethyl)oxime], the Ki on κ opioid receptor [2] is 10.7 µM; at μ-opioid receptor [4], over 20000 nM.

Consider `COc1ccc2c(c1)[C@@]1(C)CCN(C)C(C2)C1N1CCCC(C(=O)O)C1` (stereo partly drawn) [Compound 74, 1-((6R)-8-methoxy-3,6-dimethyl-1,2,3,4,5,6-hexahydro-2,6-methanobenzo[d]azocin-11-yl)piperidine-3-carboxylic acid], for which the EC50 on κ opioid receptor [1] was 0.637 ± 0.0651 µM; on μ-opioid receptor [3], 639 ± 147 nM. The figures for the Emax on κ opioid receptor [1] (HEK-293 or CHO cells) and on μ-opioid receptor [3] were 53 ± 2.31% and 31.7 ± 0.67%, respectively. Moreover, the Ki stood at 0.0241 ± 0.00593 µM on κ opioid receptor [2] and 230 ± 43.8 nM at μ-opioid receptor [4].

For `CN1CC[C@@]2(C)c3cc(O)ccc3C[C@@H]1[C@@H]2NCCc1ccc(S(N)(=O)=O)cc1` [Compound 92, 4-(2-(((2R,6S,11R)-8-hydroxy-3,6-dimethyl-1,2,3,4,5,6-hexahydro-2,6-methanobenzo[d]azocin-11-yl)amino)ethyl)benzenesulfonamide], the EC50 is over 20 µM at κ opioid receptor [1] (setting [10]), 149 ± 25.5 nM at μ-opioid receptor [6], over 20 µM on κ opioid receptor [7] and 68.9 ± 16 nM on μ-opioid receptor [3]. For the same molecule, the Emax on κ opioid receptor [1] (HEK-293 or CHO cells) was found to be 3.5 ± 1.71%; on μ-opioid receptor [6], 97.3 ± 3.53%; on κ opioid receptor [7] it was 1%; on μ-opioid receptor [3], 100 ± 3.12%. The Ki is over 20 µM in experiment [5], 0.163 ± 0.00383 µM at κ opioid receptor [2] and 54.5 ± 17.3 nM on μ-opioid receptor [4] (setting [9]).

`COc1ccc2c(c1)[C@@]1(C)CCN(CC3CC3)C(C2)C1N(C)C(=O)/C=C/c1ccoc1` (stereo in doubt) [Compound 57, (E)-N-((2R,6R,11S)-3-(cyclopropylmethyl)-8-methoxy-6-methyl-1,2,3,4,5,6-hexahydro-2,6-methanobenzo[d]azocin-11-yl)-3-(furan-3-yl)-N-methylacrylamide]: the EC50 was 0.351 ± 0.115 µM on κ opioid receptor [1] (setting [8]) and 315 ± 47.9 nM on μ-opioid receptor [3]. In addition, the values for the Emax on κ opioid receptor [1] (HEK-293 or CHO cells) and at μ-opioid receptor [3] were 85.7 ± 3.93% and 112 ± 7.22%, respectively. The Ki on κ opioid receptor [2] was 0.00461 ± 0.00143 µM; at μ-opioid receptor [4] (setting [9]), 236 ± 70.2 nM.

On to `COc1ccc2c(c1)C1(C)CCN(C)C(C2)C1=NOCC(=O)O` (stereo not shown) [Compound 1, 2-(((8-methoxy-3,6-dimethyl-1,2,3,4,5,6-hexahydro-2,6-methanobenzo[d]azocin-11-ylidene)amino)oxy)acetic Acid], for which the results for the Ki on κ opioid receptor [2] and on μ-opioid receptor [4] were 12.1 µM and over 20000 nM, respectively.

`COc1ccc2c(c1)C1(C)CCN(C)C(C2)C1=NO` (stereo not shown) [Compound 2, 8-methoxy-3,6-dimethyl-1,2,3,4,5,6-hexahydro-2,6-methanobenzo[d]azocin-11-one Oxime]: the inhibitory constant (Ki) is 2.58 ± 0.122 µM at κ opioid receptor [2] and over 20000 nM on μ-opioid receptor [4].

Regarding `CN1CC[C@]2(C)c3cc(O)ccc3C[C@H]1[C@H]2NCCc1ccc(S(N)(=O)=O)cc1` [Compound 93, 4-(2-(((2S,6R,11S)-8-hydroxy-3,6-dimethyl-1,2,3,4,5,6-hexahydro-2,6-methanobenzo[d]azocin-11-yl)amino)ethyl)benzenesulfonamide], the Ki was over 20 µM in experiment [5], 5.35 ± 0.541 µM on κ opioid receptor [2] and 3700 ± 91.4 nM at μ-opioid receptor [4] (setting [9]). Also, the results for the concentration giving a half-maximal response (EC50) at μ-opioid receptor [6], on κ opioid receptor [7] and at μ-opioid receptor [3] were 4560 ± 743 nM, over 20 µM and 3140 ± 790 nM, respectively. For the same molecule, the values for the Emax at μ-opioid receptor [6], on κ opioid receptor [7] and at μ-opioid receptor [3] were 80.7 ± 4.48%, 2% and 92 ± 4.3%, respectively.

Regarding `COc1ccc2c(c1)[C@@]1(C)CCN(C)C(C2)[C@@H]1OCC(N)=O` [Compound 3, 2-(((6R,11R)-8-methoxy-3,6-dimethyl-1,2,3,4,5,6-hexahydro-2,6-methanobenzo[d]azocin-11-yl)oxy)acetamide], the values for the Ki at κ opioid receptor [2] (bound in μM) and at μ-opioid receptor [4] were over 20 µM and over 20000 nM, respectively.
